Article PMC6979384, “Characterization of the plant homeodomain (PHD) reader family for their histone tail interactions” (Epigenetics & Chromatin, 2020)
Where “and” joins values, the source holds several entries; their conditions need not be identical. Equal values may be shown once.

What was measured:
Experiment in all cases: Histone peptide microarray
Assay type in all cases: binding, human
[1] = system: ING3; details: ING3, GST-tagged; arrays performed twice, n of 4
Summary of the method: (§1)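 Each reader, produced as a GST fusion and purified, was tested at 0.5 μM on synthetic histone peptides (293 in total) carrying single or combinatorial marks. Intensities averaged over four replicates.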

[2] = system: CHD4 (PPCC); details: CHD4 (PPCC), GST-tagged; arrays performed twice, n of 4
Summary of the method: as §1

[3] = system: KDM5A (3); details: KDM5A (3), GST-tagged; arrays performed twice, n of 4
Summary of the method: as §1

[4] = system: PHF21A; details: PHF21A, GST-tagged; arrays performed twice, n of 4
Summary of the method: as §1

[5] = system: DIDO1; details: DIDO1, GST-tagged; arrays performed twice, n of 4
Summary of the method: as §1

[6] = system: MLL5; details: MLL5, GST-tagged; arrays performed twice, n of 4
Summary of the method: as §1

[7] = system: KDM5B (1); details: KDM5B (1), GST-tagged; arrays performed twice, n of 4
Summary of the method: as §1

[8] = system: CHD5 (PCC); details: CHD5 (PCC), GST-tagged; arrays performed twice, n of 4
Summary of the method: as §1

[9] = system: KDM7A; details: KDM7A, GST-tagged; arrays performed twice, n of 4
Summary of the method: as §1

[10] = system: PHF23; details: PHF23, GST-tagged; arrays performed twice, n of 4
Summary of the method: as §1

[11] = system: TRIM66 (PB); details: TRIM66 (PB), GST-tagged; arrays performed twice, n of 4
Summary of the method: as §1

[12] = system: KDM5B (3); details: KDM5B (3), GST-tagged; arrays performed twice, n of 4
Summary of the method: as §1

[13] = system: ING2; details: ING2, GST-tagged; arrays performed twice, n of 4
Summary of the method: as §1

[14] = system: BPTF (PB); details: BPTF (PB), GST-tagged; arrays performed twice, n of 4
Summary of the method: as §1

[15] = system: SP140L; details: SP140L, GST-tagged; arrays performed twice, n of 4
Summary of the method: as §1

[16] = system: PHF8; details: PHF8, GST-tagged; arrays performed twice, n of 4
Summary of the method: as §1

[17] = system: TAF3; details: TAF3, GST-tagged; arrays performed twice, n of 4
Summary of the method: as §1

[18] = system: MORC3 (CW); details: MORC3 (CW), GST-tagged; arrays performed twice, n of 4
Summary of the method: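 A peptide microarray holding 293 synthetic histone peptides with individual or combinatorial modifications was probed with each GST-PHD protein at 0.5 μM. Values represent mean intensity (±SD) from four replicates.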

[19] = system: RAG2; details: RAG2, GST-tagged; arrays performed twice, n of 4
Summary of the method: as §1

[20] = system: AIRE (PP); details: AIRE (PP), GST-tagged; arrays performed twice, n of 4
Summary of the method: as §1

[21] = system: ING5; details: ING5, GST-tagged; arrays performed twice, n of 4
Summary of the method: as §1

[22] = system: PHF13; details: PHF13, GST-tagged; arrays performed twice, n of 4
Summary of the method: as §1

[23] = system: KDM4C (TTP); details: KDM4C (TTP), GST-tagged; arrays performed twice, n of 4
Summary of the method: as §1

[24] = system: BAZ2B; details: BAZ2B, GST-tagged; arrays performed twice, n of 4
Summary of the method: as §1

[25] = system: KDM5A (1); details: KDM5A (1), GST-tagged; arrays performed twice, n of 4
Summary of the method: as §1

[26] = system: ING4; details: ING4, GST-tagged; arrays performed twice, n of 4
Summary of the method: as §1

[27] = system: DPF2 (PPC2W2); details: DPF2 (PPC2W2), GST-tagged; arrays performed twice, n of 4
Summary of the method: as §1

[28] = system: PHRF1 (RP); details: PHRF1 (RP), GST-tagged; arrays performed twice, n of 4
Summary of the method: as §1

[29] = system: ING1; details: ING1, GST-tagged; arrays performed twice, n of 4
Summary of the method: as §1

[30] = system: PHF2; details: PHF2, GST-tagged; arrays performed twice, n of 4
Summary of the method: as §1

[31] = system: CHD5 (PPCC); details: CHD5 (PPCC), GST-tagged; arrays performed twice, n of 4
Summary of the method: as §1

Substance | Array Heatmap value (peptide array binding signal) [1] | Array Heatmap value (peptide array binding signal) [2] | Array Heatmap value (peptide array binding signal) [3] | Array Heatmap value (peptide array binding signal) [4] | Array Heatmap value (peptide array binding signal) [5] | Array Heatmap value (peptide array binding signal) [6] | Array Heatmap value (peptide array binding signal) [7] | Array Heatmap value (peptide array binding signal) [8] | Array Heatmap value (peptide array binding signal) [9] | Array Heatmap value (peptide array binding signal) [10] | Array Heatmap value (peptide array binding signal) [11] | Array Heatmap value (peptide array binding signal) [12] | Array Heatmap value (peptide array binding signal) [13] | Array Heatmap value (peptide array binding signal) [14] | Array Heatmap value (peptide array binding signal) [15] | Array Heatmap value (peptide array binding signal) [16] | Array Heatmap value (peptide array binding signal) [17] | Array Heatmap value (peptide array binding signal) [18] | Array Heatmap value (peptide array binding signal) [19] | Array Heatmap value (peptide array binding signal) [20] | also measured
H3K27acK36me1 (21-44): H3 21-44 | 0.5657 | 0.6736 | 0.5161 | 0.5223 | 0.819 | 0.6075 | 0.7243 | 0.8019 | 0.3972 | 0.594 | 0.6284 | 0.4928 | 0.6555 | 0.4151 | 0.402 | 0.4123 | 0.3058 | 0.41 | 0.2901 | 0.4899 | Array Heatmap value (peptide array binding signal) [21]: 0.4437; Array Heatmap value (peptide array binding signal) [22]: 0.7148; Array Heatmap value (peptide array binding signal) [23]: 0.5731; Array Heatmap value (peptide array binding signal) [24]: 0.5322; Array Heatmap value (peptide array binding signal) [25]: 0.5728; Array Heatmap value (peptide array binding signal) [26]: 0.5489; Array Heatmap value (peptide array binding signal) [27]: 0.7332; Array Heatmap value (peptide array binding signal) [28]: 0.5526; Array Heatmap value (peptide array binding signal) [29]: 0.6463; Array Heatmap value (peptide array binding signal) [30]: 0.6877; Array Heatmap value (peptide array binding signal) [31]: 0.6612
H3K27acK36me2 (21-44): H3 21-44 | 0.4824 and 0.4746 | 0.5418 and 0.5498 | 0.4461 and 0.4626 | 0.4478 and 0.464 | 0.6948 and 0.6464 | 0.5387 and 0.5129 | 0.6449 and 0.6364 | 0.7409 and 0.7549 | 0.3413 and 0.3447 | 0.5178 and 0.5191 | 0.5511 and 0.5888 | 0.4476 and 0.4512 | 0.6056 and 0.5874 | 0.3426 and 0.3388 | 0.3702 and 0.357 | 0.3474 and 0.3417 | 0.2617 and 0.2453 | 0.3508 and 0.3632 | 0.238 and 0.2335 | 0.4428 and 0.4192 | Array Heatmap value (peptide array binding signal) [21]: 0.3615 and 0.3253; Array Heatmap value (peptide array binding signal) [22]: 0.6217 and 0.5883; Array Heatmap value (peptide array binding signal) [23]: 0.4885 and 0.4721; Array Heatmap value (peptide array binding signal) [24]: 0.4609 and 0.4258; Array Heatmap value (peptide array binding signal) [25]: 0.4783 and 0.4109; Array Heatmap value (peptide array binding signal) [26]: 0.4678 and 0.4306; Array Heatmap value (peptide array binding signal) [27]: 0.7163 and 0.602; Array Heatmap value (peptide array binding signal) [28]: 0.4704 and 0.4395; Array Heatmap value (peptide array binding signal) [29]: 0.5489 and 0.5171; Array Heatmap value (peptide array binding signal) [30]: 0.5335 and 0.4712; Array Heatmap value (peptide array binding signal) [31]: 0.5507 and 0.5149
H3K36ac (21-44): H3 21-44 | 0.4959 | 0.5911 | 0.4289 | 0.4731 | 0.7412 | 0.5602 | 0.6899 | 0.8362 | 0.3751 | 0.5388 | 0.6317 | 0.4828 | 0.6078 | 0.3596 | 0.3554 | 0.3497 | 0.2714 | 0.3556 | 0.2439 | 0.4538 | Array Heatmap value (peptide array binding signal) [21]: 0.3615; Array Heatmap value (peptide array binding signal) [22]: 0.6346; Array Heatmap value (peptide array binding signal) [23]: 0.4961; Array Heatmap value (peptide array binding signal) [24]: 0.4745; Array Heatmap value (peptide array binding signal) [25]: 0.4894; Array Heatmap value (peptide array binding signal) [26]: 0.4623; Array Heatmap value (peptide array binding signal) [27]: 0.7036; Array Heatmap value (peptide array binding signal) [28]: 0.4519; Array Heatmap value (peptide array binding signal) [29]: 0.5601; Array Heatmap value (peptide array binding signal) [30]: 0.5459; Array Heatmap value (peptide array binding signal) [31]: 0.5645
H3K36me1 (21-44): H3 21-44 | 0.3958 | 0.5004 | 0.3829 | 0.4184 | 0.5926 | 0.4918 | 0.6354 | 0.7445 | 0.3181 | 0.4625 | 0.5169 | 0.3806 | 0.5895 | 0.3001 | 0.3238 | 0.3097 | 0.2241 | 0.3108 | 0.2054 | 0.395 | Array Heatmap value (peptide array binding signal) [21]: 0.2888; Array Heatmap value (peptide array binding signal) [22]: 0.5223; Array Heatmap value (peptide array binding signal) [23]: 0.4185; Array Heatmap value (peptide array binding signal) [24]: 0.3935; Array Heatmap value (peptide array binding signal) [25]: 0.422; Array Heatmap value (peptide array binding signal) [26]: 0.3966; Array Heatmap value (peptide array binding signal) [27]: 0.6617; Array Heatmap value (peptide array binding signal) [28]: 0.3839; Array Heatmap value (peptide array binding signal) [29]: 0.4725; Array Heatmap value (peptide array binding signal) [30]: 0.4036; Array Heatmap value (peptide array binding signal) [31]: 0.4582
